US20240092761A1, “QUINAZOLINE COMPOUNDS AND METHODS OF USE” (IAMBIC THERAPEUTICS, INC., priority 2022, published 2024)

Experiments:
[1] = molecular target: CDK2/Cyclin E1 full length (Homo sapiens (Human), UniProt P24941); assay: CDK2/Cyclin E1 Full Length ADP-Glo Kinase Assay; assay type: biochemical; conditions: 20 uM ATP, read-out: CDK2/ CyclinE1 IC50
How it was run: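 Full-length human CDK2/Cyclin E1 (0.328 nM) pre-incubated 30 min with inhibitor at RT, then reacted 90 min at RT with 20 uM ATP (Km 64.78 uM) and 0.75 uM substrate in pH 7.5 HEPES, 2% DMSO. ADP measured by ADP-Glo luminescence; IC50 from 4-parameter fit of fractional velocity.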

CDK6/Cyclin D3 = CDK6/Cyclin D3 (Homo sapiens (Human), UniProt Q00534); assay: CDK6/Cyclin D3 ADP-Glo Kinase Assay; assay type: biochemical; conditions: 100 uM ATP, read-out: CDK6/ CyclinD3 IC50
How it was run: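 Recombinant human CDK6/Cyclin D3 pre-incubated 30 min with inhibitor at room temperature, then reaction started with ATP/substrate and run 90 min at room temperature. ADP formed detected by ADP-Glo luminescence; IC50 from a 4-parameter fit of fractional velocity versus inhibitor concentration.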

MCF-7 cells = assay: Cell Growth Inhibition, MCF-7 (CellTiterGlo, 6 days); assay type: cell-based; conditions: MCF-7, 6-day treatment, CellTiterGlo 2.0
How it was run: (§1)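 MCF-7 and OVCAR-3 cells (RPMI, 10% FBS) were seeded at 500 cells/well onto compound, typically 10–10,000 nM in half-log dilutions. Growth proceeded 6 days at 37 °C, then CellTiterGlo luminescence was read. % inhibition was taken versus control, and IC50 came from a four-parameter variable-slope fit.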

OVCAR-3 cells = assay: Cell Growth Inhibition, OVCAR-3 (CellTiterGlo, 6 days); assay type: cell-based; conditions: OVCAR-3, 6-day treatment, CellTiterGlo 2.0
How it was run: as §1

CDK4/Cyclin D1 = CDK4/Cyclin D1 (Homo sapiens (Human), UniProt P11802); assay: CDK4/Cyclin D1 Mobility Shift Assay (MSA); assay type: biochemical; conditions: 0.2 mM ATP, read-out: CDK4/ CyclinD1 MSA IC50
How it was run: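 Reaction: 2.5 nM enzyme, 0.2 mM ATP, 1.5 µM 5-FAM-Dyrktide, 10 mM MgCl2, 2 mM DTT, 2% DMSO, 50 mM HEPES pH 7.5. Inhibitor was preincubated 30 min at 22 °C, then the reaction ran 180 min before EDTA stop. Microfluidic separation of substrate and product gave % conversion, and IC50 came from a 4-parameter fit.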

CDK1/Cyclin B1 = CDK1/Cyclin B1 (Homo sapiens (Human), UniProt P06493); assay: CDK1/Cyclin B1 ADP-Glo Kinase Assay; assay type: biochemical; conditions: 80 uM ATP
How it was run: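 CDK1/cyclin B1 (4.917 nM) preincubated 30 min with inhibitor (2% DMSO), then 80 µM ATP (Km 78.6 µM) and 0.75 µM substrate added; 90 min, room temperature, pH 7.5. ADP measured by ADP-Glo luminescence; IC50 from 4-parameter fit.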

Sequence of CDK6/Cyclin D3 (Q00534 whole entry): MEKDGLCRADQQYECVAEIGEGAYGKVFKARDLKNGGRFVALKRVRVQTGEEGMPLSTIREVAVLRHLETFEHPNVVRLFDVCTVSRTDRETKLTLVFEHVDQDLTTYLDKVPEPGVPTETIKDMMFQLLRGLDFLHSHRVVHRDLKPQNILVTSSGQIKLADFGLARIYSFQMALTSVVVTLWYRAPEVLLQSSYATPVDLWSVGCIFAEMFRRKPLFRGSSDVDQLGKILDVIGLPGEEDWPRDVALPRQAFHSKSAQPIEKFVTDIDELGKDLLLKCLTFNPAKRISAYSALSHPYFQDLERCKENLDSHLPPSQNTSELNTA
Sequence of CDK6/Cyclin D3 (P30281 whole entry partner): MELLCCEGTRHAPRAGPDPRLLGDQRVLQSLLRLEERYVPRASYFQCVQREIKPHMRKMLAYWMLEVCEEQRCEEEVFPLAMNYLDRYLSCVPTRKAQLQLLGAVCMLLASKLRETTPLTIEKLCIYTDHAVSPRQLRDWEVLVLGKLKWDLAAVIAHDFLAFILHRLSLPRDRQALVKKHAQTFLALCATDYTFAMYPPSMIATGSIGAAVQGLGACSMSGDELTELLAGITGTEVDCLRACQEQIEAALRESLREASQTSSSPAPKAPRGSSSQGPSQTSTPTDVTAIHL
Sequence of CDK4/Cyclin D1 (P11802 whole entry): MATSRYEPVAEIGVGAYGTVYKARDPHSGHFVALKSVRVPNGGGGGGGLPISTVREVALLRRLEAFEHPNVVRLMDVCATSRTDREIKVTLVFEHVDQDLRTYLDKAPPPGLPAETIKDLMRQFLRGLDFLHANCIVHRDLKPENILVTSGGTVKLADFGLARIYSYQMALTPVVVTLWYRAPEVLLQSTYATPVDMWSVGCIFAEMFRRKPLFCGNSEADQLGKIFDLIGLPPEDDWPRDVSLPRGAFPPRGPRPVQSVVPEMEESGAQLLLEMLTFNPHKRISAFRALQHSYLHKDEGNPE
Sequence of CDK4/Cyclin D1 (P24385 whole entry partner): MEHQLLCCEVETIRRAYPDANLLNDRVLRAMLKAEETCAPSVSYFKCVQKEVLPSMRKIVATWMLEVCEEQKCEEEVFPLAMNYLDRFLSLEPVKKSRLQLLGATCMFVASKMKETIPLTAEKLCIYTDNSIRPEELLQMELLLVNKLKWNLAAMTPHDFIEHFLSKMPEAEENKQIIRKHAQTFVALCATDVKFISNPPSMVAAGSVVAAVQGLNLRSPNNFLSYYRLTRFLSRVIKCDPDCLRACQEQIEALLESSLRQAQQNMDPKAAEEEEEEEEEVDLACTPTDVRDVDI
Sequence of CDK1/Cyclin B1 (P06493 whole entry): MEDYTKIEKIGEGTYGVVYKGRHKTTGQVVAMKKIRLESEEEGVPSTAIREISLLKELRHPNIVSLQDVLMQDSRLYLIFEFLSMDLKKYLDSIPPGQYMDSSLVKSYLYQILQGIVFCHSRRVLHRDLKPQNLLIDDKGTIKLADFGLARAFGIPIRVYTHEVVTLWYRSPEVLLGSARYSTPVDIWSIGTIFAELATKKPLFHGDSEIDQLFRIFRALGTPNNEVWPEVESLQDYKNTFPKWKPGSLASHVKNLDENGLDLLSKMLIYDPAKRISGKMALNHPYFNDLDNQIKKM
Sequence of CDK1/Cyclin B1 (P14635 whole entry partner): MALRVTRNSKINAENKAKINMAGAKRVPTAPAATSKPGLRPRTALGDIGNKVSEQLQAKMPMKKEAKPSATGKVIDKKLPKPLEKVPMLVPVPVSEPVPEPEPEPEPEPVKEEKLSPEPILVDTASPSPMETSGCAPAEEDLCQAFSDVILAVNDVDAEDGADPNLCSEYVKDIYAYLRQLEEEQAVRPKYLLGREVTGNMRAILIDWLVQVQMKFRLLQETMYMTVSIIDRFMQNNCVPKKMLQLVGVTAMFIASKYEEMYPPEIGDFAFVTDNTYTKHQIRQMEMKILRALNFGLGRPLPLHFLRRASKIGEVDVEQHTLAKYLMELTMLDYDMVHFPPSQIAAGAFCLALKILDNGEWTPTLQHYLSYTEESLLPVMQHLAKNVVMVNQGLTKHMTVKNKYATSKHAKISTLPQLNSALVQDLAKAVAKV

FC(F)c1cc(N2CCC3(C2)CC3(F)F)c2nc(NC3[C@H]4CNC[C@@H]34)ncc2c1 (stereo partly drawn) [Example 53, 8-(1,1-difluoro-5-azaspiro[2.4]heptan-5-yl)-6-(difluoromethyl)-N-((1R,5S,6s)-3-azabicyclo[3.1.0]hexan-6-yl)quinazolin-2-amine]
IC50 [1]: > 2000 nM | IC50 (CDK6/Cyclin D3): < 200 nM | IC50 (MCF-7 cells): 500 to 2000 nM | IC50 (OVCAR-3 cells): > 2000 nM | IC50 (CDK4/Cyclin D1): < 200 nM | IC50 (CDK1/Cyclin B1): > 2000 nM

CN1C[C@@H]2[C@H](C1)[C@H]2Nc1ncc2cc(C(F)F)cc(N3CCC4(C3)CS(=O)(=O)C4)c2n1 [Example 54, 6-(6-(difluoromethyl)-2-(((1R,5S,6s)-3-methyl-3-azabicyclo[3.1.0]hexan-6-yl)amino)quinazolin-8-yl)-2-thia-6-azaspiro[3.4]octane 2,2-dioxide]
IC50 [1]: > 2000 nM | IC50 (CDK6/Cyclin D3): 200 to 500 nM | IC50 (MCF-7 cells): > 2000 nM | IC50 (OVCAR-3 cells): > 2000 nM | IC50 (CDK4/Cyclin D1): < 200 nM | IC50 (CDK1/Cyclin B1): > 2000 nM

CN1CC2(CCC1=O)CCN(c1cccc3cnc(NC4CCN(S(C)(=O)=O)CC4)nc13)C2 (stereo not drawn) [Example 55, 7-methyl-2-(2-((1-(methylsulfonyl)piperidin-4-yl)amino)quinazolin-8-yl)-2,7-diazaspiro[4.5]decan-8-one]
IC50 [1]: 500 to 2000 nM | IC50 (CDK6/Cyclin D3): 500 to 2000 nM | IC50 (MCF-7 cells; Homo sapiens, MCF7, 144 h): > 2000 nM | IC50 (OVCAR-3 cells; Homo sapiens, 144 h): > 2000 nM | IC50 (CDK4/Cyclin D1): 200 to 500 nM | IC50 (CDK1/Cyclin B1): > 2000 nM
